Here are results for six molecules from patent US20260226048A1, “MULTI-CYCLIC IRAK AND FLT3 INHIBITING COMPOUNDS AND USES THEREOF” (CHILDREN'S HOSPITAL MEDICAL CENTER, priority 2023, published 2026).

Like-named read-outs stand apart in the source and are kept apart here. A value given as a limit tells only on which side of the number the result lay.

For orientation: IC50 means the concentration that gives 50% inhibition.

The target in test [1] is T1, FLT3 (Homo sapiens, UniProt P36888).
T1 sequence (P36888 27-993): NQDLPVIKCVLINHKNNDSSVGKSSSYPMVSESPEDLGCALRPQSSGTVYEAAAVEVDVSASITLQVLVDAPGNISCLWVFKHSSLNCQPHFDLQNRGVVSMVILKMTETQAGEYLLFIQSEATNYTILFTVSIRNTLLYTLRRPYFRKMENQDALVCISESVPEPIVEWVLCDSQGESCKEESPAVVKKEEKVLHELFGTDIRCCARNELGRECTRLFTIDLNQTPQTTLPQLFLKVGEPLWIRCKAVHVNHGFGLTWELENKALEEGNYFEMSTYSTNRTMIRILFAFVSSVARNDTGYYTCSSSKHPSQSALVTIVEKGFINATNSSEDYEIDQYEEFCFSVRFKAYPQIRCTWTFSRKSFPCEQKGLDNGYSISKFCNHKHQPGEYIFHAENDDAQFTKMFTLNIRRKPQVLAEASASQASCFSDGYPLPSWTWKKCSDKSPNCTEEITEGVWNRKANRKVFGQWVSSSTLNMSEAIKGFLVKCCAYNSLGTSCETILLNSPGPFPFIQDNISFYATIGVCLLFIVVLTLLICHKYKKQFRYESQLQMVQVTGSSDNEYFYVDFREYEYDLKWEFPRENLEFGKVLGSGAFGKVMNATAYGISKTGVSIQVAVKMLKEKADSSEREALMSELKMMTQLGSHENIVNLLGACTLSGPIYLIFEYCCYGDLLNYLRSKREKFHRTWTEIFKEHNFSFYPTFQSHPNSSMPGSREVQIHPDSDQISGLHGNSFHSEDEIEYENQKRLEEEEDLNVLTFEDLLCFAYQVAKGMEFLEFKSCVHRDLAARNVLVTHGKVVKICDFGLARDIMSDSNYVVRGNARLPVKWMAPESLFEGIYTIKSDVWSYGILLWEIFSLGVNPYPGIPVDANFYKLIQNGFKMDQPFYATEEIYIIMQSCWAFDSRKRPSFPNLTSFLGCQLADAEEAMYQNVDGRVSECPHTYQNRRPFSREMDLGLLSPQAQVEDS
Description: RBC HotSpot Kinase Assay, FLT3. In kind it is biochemical. On the set-up: purchased Reaction Biology (RBC HotSpot). The settings on record: isolated kinase enzyme, 33P-ATP, P81 filter-binding. The procedure, abridged: (§1)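 Reactions ran in 20 mM Hepes (pH 7.5) containing 10 mM MgCl2, 1 mM EGTA, 0.1 mM Na3VO4, 2 mM DTT, 0.02 mg/ml BSA, 0.01% Brij35 and 1% DMSO, plus required cofactors. Functional activity readout on the expressible enzyme form, sometimes C-terminally truncated or lacking receptor regulatory regions.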

Test [2] addresses T2, IRAK1 (Homo sapiens, UniProt P51617).
T2 construct: purchased Reaction Biology (RBC HotSpot)
In words: RBC HotSpot Kinase Assay, IRAK1. It counts as biochemical. The settings on record: isolated kinase enzyme, 33P-ATP, P81 filter-binding. The procedure, abridged:
as §1

In test [3] the test system is MOLM14 D835Y cells. Description: MOLM14 D835Y cell viability assay (Cell Titer Glo). It counts as cell-based. To be noted: cell viability, Cell Titer Glo, 48 hours, read-out: MOLM14 D835Y IC50. The method in brief: (§2)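 Luminescent ATP read-out (CellTiter-Glo, 15 min room temperature) taken 48 h after compound addition. Cells were MOLM14 carrying FLT3 D835Y or F691L mutations, plated at 1000 cells per well.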

For test [4], the system named is MOLM14-D835Y cells (FLT3-ITD (D835Y) mutant). In words: Combination drug screening with venetoclax in MOLM14 (D835Y) cells (Cell Titre Glo, 10 × 10). It counts as cell-based. On the set-up: Excess HSA (sum excess HSA score, combination with venetoclax): scale not given here. The settings on record: for Excess HSA (sum excess HSA score, combination with venetoclax): 10 × 10 dataset, Cell Titre Glo at 48 hours, optimal of 4 dose combinations, negative = synergy; for Concentration of a compound of the disclosure, or gilteritinib, needed to decrease the 62.5 nM Ven response to <10% in MOLM14(D835Y) cells: combination with 62.5 nM Venetoclax, Cell Titer Glo, 48 hours, response <10%. As for the experimental part: (§3) These assays were performed using the Cell Titre Glo assay, measured at 48 hours.
(§4) A smaller concentration indicates higher potency to synergize with Venetoclax.
(In general: Cellular ATP, detected with luciferase, serves as a proxy for viable cell number.)

For test [5], the target named is T3, IRAK4 (Homo sapiens, UniProt Q9NWZ3).
T3 sequence (Q9NWZ3 1-460): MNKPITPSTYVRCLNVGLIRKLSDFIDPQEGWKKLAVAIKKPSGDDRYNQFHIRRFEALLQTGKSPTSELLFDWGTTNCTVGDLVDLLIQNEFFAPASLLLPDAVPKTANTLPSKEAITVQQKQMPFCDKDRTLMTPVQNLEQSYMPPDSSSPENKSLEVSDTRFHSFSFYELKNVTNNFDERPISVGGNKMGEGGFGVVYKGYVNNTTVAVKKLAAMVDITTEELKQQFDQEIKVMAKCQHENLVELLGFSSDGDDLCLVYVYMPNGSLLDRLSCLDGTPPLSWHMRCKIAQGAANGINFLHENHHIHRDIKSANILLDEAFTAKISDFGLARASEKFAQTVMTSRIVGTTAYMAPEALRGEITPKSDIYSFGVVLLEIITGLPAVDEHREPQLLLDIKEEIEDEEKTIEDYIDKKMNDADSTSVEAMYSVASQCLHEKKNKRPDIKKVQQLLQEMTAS
In words: RBC HotSpot Kinase Assay, IRAK4. In kind it is biochemical. The arrangement: purchased Reaction Biology (RBC HotSpot). The settings on record: isolated kinase enzyme, 33P-ATP, P81 filter-binding. The procedure, abridged:
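Radiometric filter-binding activity assay with isolated recombinant kinase (construct may be truncated or catalytic domain only) in 20 mM Hepes pH 7.5, 10 mM MgCl2, 1 mM EGTA, 2 mM DTT, 1% DMSO. Compound preincubated 20 min with kinase/substrate; reaction started with 33P-ATP, run 2 h at room temperature.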

The test system of test [6] is THP1 cells (FLT3 WT). Description: Combination drug screening with venetoclax in THP1 cells (Cell Titre Glo, 10 × 10). To be noted: for Excess HSA (sum excess HSA score, combination with venetoclax): 10 × 10 dataset, Cell Titre Glo at 48 hours, optimal of 4 dose combinations, negative = synergy; for Concentration needed to decrease the 312.5 nM Venetoclax response to <20%: Cell Titer Glo at 48 hours. It counts as cell-based. As for the experimental part:
as §3, §4

The test system of test [7] is MOLM14 F691L cells. In words: MOLM14 F691L cell viability assay (Cell Titer Glo). In kind it is cell-based. To be noted: Homo sapiens, MOLM-14; cell viability, Cell Titer Glo, 48 hours; read-out: MOLM14 F691L IC50. The method in brief:
as §2

The test system of test [8] is NF-κB-inducible SEAP reporter in THP-1-Blue NF-κB cells. Description: NF-kB SEAP reporter assay in THP-1-Blue NF-κB cells. It counts as cell-based. The settings on record: 24 hours. As for the experimental part:
THP-1-Blue NF-κB cells (InvivoGen) carrying a stable integrated NF-κB-inducible secreted embryonic alkaline phosphatase (SEAP) reporter construct were plated at a concentration of 1×10^5 cells per well. The cells were stimulated with Pam3CSK4 (1 ng/mL) or hIL1B (1 ng/mL). After 10-20 minutes, the cells were then treated with vehicle (DMSO) or serial dilutions of the test compounds (10 doses tested for each test compound, with a 1:10 dilution series starting at 1 μM or 3 μM) with a final volume of 200 μL for 24 hours at 37° C. After 24 hours, the cells were centrifuged and 20 μL supernatant was incubated with 180 μL QUANTI-Blue reagent at 37° C. for 30-60 minutes. The levels of NF-κB-induced was measured in a microplate reader at 620 nm.
(A reporter such as luciferase makes a cellular process visible.)

T2 sequence (P51617 whole entry): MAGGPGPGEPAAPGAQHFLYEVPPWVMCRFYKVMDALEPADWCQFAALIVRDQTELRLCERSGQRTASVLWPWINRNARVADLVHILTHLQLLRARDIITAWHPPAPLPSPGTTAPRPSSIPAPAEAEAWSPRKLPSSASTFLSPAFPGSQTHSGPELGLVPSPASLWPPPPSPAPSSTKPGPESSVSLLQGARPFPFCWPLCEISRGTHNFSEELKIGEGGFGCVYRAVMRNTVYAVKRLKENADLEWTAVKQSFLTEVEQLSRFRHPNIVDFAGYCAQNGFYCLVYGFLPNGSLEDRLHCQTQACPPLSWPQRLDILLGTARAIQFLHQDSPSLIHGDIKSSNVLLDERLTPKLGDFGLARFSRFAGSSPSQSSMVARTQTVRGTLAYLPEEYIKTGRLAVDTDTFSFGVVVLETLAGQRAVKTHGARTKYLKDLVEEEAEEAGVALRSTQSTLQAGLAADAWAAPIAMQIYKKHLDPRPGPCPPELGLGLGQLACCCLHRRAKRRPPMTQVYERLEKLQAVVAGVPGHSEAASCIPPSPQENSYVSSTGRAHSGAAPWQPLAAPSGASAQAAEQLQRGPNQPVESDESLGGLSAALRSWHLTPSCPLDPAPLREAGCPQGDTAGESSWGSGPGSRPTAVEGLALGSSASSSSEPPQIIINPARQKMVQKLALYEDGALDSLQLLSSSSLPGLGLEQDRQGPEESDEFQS

In the case of `CC(O)(c1ccc2ncc(-c3nc(N[C@H]4CNCC[C@@H]4F)ncc3F)n2c1)C(F)(F)F` (single isomer, unassigned) [Compound 34a], the IC50 in test [1] was 0.6 nM; in test [2], 4 nM; in test [3] (Homo sapiens, MOLM-14, 48 h) it was 51 nM; in test [5] it was 2 nM. The “Excess HSA (sum excess HSA score, combination with venetoclax)” value (“Excess HSA” for short) in test [4] is reported as −1437.9420; in test [6], −683.5. Further, the “Concentration of a compound of the disclosure, or gilteritinib, needed to decrease the 62.5 nM Ven response to <10% in MOLM14(D835Y) cells” value in test [4] was 100 nM. The “Concentration needed to decrease the 312.5 nM Venetoclax response to <20%” value in test [6] amounted to 1.25 µM.
On to `CC(O)(c1ccc2ncc(-c3nc(N[C@H]4CNCC[C@@H]4F)ncc3F)n2c1)C(F)(F)F` (single isomer, unassigned) [Compound 35a], for which the IC50 in test [1] is below 0.5 nM; in test [2], 0.9 nM; in test [3], 26 nM; in test [5], 0.7 nM. Besides, the “Excess HSA” value in test [4] is recorded as −1543; in test [6], −937.7. In addition, in test [4], the “Concentration of a compound of the disclosure, or gilteritinib, needed to decrease the 62.5 nM Ven response to <10% in MOLM14(D835Y) cells” value is reported as 25 nM. The “Concentration needed to decrease the 312.5 nM Venetoclax response to <20%” value in test [6] was found to be 1.25 µM.
Turning to `COc1cc2ncc(-c3nc(N[C@H]4CNCC[C@@H]4F)ncc3F)n2nc1C1CCC1` [Compound 54a, 4-(6-cyclobutyl-7-methoxyimidazo[1,2-b]pyridazin-3-yl)-5-fluoro-N-((3S,4S)-4-fluoropiperidin-3-yl)pyrimidin-2-amine], the 50% inhibitory concentration (IC50) in test [1] is below 0.5 nM; in test [7], 7 nM; in test [2], below 0.5 nM; in test [3] (Homo sapiens, MOLM-14, 48 h), 1 nM; in test [5], below 0.5 nM. Besides, the entries for the “Excess HSA” value in test [4] and in test [6] were −1490 and −807.2, respectively. The “Concentration of a compound of the disclosure, or gilteritinib, needed to decrease the 62.5 nM Ven response to <10% in MOLM14(D835Y) cells” value in test [4] is recorded as 1.6 nM. For the same molecule, in test [6], the “Concentration needed to decrease the 312.5 nM Venetoclax response to <20%” value amounted to 5 µM.
Turning to `COc1cc2ncc(-c3nc(N[C@H]4CNCC[C@@H]4F)ncc3F)n2nc1C1CC(C)(C)C1` [Compound 57a, 4-(6-(3,3-dimethylcyclobutyl)-7-methoxyimidazo[1,2-b]pyridazin-3-yl)-5-fluoro-N-((3S,4S)-4-fluoropiperidin-3-yl)pyrimidin-2-amine], the IC50 in test [7] worked out at 90 nM; in test [2] it was 2 nM; in test [3] (Homo sapiens, MOLM-14, 48 h), 11 nM; in test [5], 1 nM; in test [8] (THP-1-Blue NF-κB cells stimulated with Pam3CSK4 (1 ng/mL), read-out: NF-κB Pam3SCK4 IC50), 157 nM; in test [8] (THP-1-Blue NF-κB cells stimulated with hIL1B (1 ng/mL), read-out: NF-κB IL1B IC50) it was 167 nM. Moreover, the entries for the “Excess HSA” value in test [4] and in test [6] were −1762 and −1308.2250, respectively.
For the molecule `COc1cc2ncc(-c3ccnc(N[C@H]4CNCC[C@@H]4F)n3)n2nc1C1CC2(CCC2)C1` [Compound 74a, N-((3S,4S)-4-fluoropiperidin-3-yl)-4-(7-methoxy-6-(spiro[3.3]heptan-2-yl)imidazo[1,2-b]pyridazin-3-yl)pyrimidin-2-amine], the concentration for half-maximal inhibition (IC50) was below 0.5 nM in test [1]; 1000 nM in test [7]; 91 nM in test [2]; 80 nM in test [3] (Homo sapiens, MOLM-14, 48 h); 26 nM in test [5]. For the same molecule, the “Excess HSA” value in test [4] is on record as −1335; in test [6], −456.1. The “Concentration of a compound of the disclosure, or gilteritinib, needed to decrease the 62.5 nM Ven response to <10% in MOLM14(D835Y) cells” value in test [4] is given as 312 nM. In test [6], the “Concentration needed to decrease the 312.5 nM Venetoclax response to <20%” value came to 5 µM.
For `COc1cc2ncc(-c3ccnc(N[C@H]4CNCC[C@@H]4F)n3)n2nc1C1CC(C)(C)C1` [Compound 82a, 4-(6-(3,3-dimethylcyclobutyl)-7-methoxyimidazo[1,2-b]pyridazin-3-yl)-N-((3S,4S)-4-fluoropiperidin-3-yl)pyrimidin-2-amine], the IC50 in test [1] is below 0.5 nM; in test [7] it was 1130 nM; in test [2] it was 174 nM; in test [3] (Homo sapiens, MOLM-14, 48 h) it was 127 nM; in test [5], 45 nM. For the same molecule, the “Excess HSA” value was −1679 in test [4] and −1292.2960 in test [6]. Besides, the “Concentration of a compound of the disclosure, or gilteritinib, needed to decrease the 62.5 nM Ven response to <10% in MOLM14(D835Y) cells” value in test [4] is listed as 39 nM. In test [6], the “Concentration needed to decrease the 312.5 nM Venetoclax response to <20%” value is 5 µM.
